Measurements from ChEMBL document CHEMBL5316325, “Design and Synthesis of 3-Hydroxy-pyridin-4(1H)-ones-Ciprofloxacin Conjugates as Dual Antibacterial and Antibiofilm Agents against Pseudomonas aeruginosa” (J Med Chem, 2023).
≈ marks a conversion by molar mass, not a printed value. Calls of active or inactive are those of the source. The rule behind the calls is not given here.

Tests used:
Pseudomonas aeruginosa [1] = experiment: Antibacterial activity against Pseudomonas aeruginosa PAO1 in ABTGC medium assessed as bacterial growth inhibition; type: functional
Pseudomonas aeruginosa [2] = experiment: Antibacterial activity against Pseudomonas aeruginosa FB in MHB medium assessed as bacterial growth inhibition by CLSI based broth microdilution method; type: functional
Pseudomonas aeruginosa [3] = experiment: Antibacterial activity against Pseudomonas aeruginosa ATCC 27853 in MHB medium assessed as bacterial growth inhibition by CLSI based broth microdilution method; type: functional
Pseudomonas aeruginosa [4] = experiment: Antibacterial activity against Pseudomonas aeruginosa 1129 in MHB medium assessed as bacterial growth inhibition by CLSI based broth microdilution method; type: functional
Staphylococcus aureus [5] = experiment: Antibacterial activity against methicillin-resistant Staphylococcus aureus ATCC 515992 in MHB medium assessed as bacterial growth inhibition by CLSI based broth microdilution method; type: functional
Pseudomonas aeruginosa [6] = experiment: Antibacterial activity against Pseudomonas aeruginosa 1121 in MHB medium assessed as bacterial growth inhibition by CLSI based broth microdilution method; type: functional
Pseudomonas aeruginosa [7] = experiment: Antibacterial activity against Pseudomonas aeruginosa PAO1 in MHB medium assessed as bacterial growth inhibition by CLSI based broth microdilution method; type: functional
Klebsiella pneumoniae = experiment: Antibacterial activity against Klebsiella pneumoniae ATCC 700603 in MHB medium assessed as bacterial growth inhibition by CLSI based broth microdilution method; type: functional
Pseudomonas aeruginosa [8] = experiment: Antibiofilm activity against Pseudomonas aeruginosa PAO1 assessed as inhibition of bacterial motility at 15 uM incubated for 16 hrs relative to control; type: functional, organism-based
Staphylococcus aureus [9] = experiment: Antibacterial activity against Staphylococcus aureus ATCC 25923 in MHB medium assessed as bacterial growth inhibition by CLSI based broth microdilution method; type: functional
Escherichia coli = experiment: Antibacterial activity against Escherichia coli ATCC 25922 in MHB medium assessed as bacterial growth inhibition by CLSI based broth microdilution method; type: functional
Pseudomonas aeruginosa [10] = experiment: Antibiofilm activity against Pseudomonas aeruginosa PAO1 assessed as decrease in rhamnolipid level at 15 uM by absorbance based assay; type: functional, organism-based
Pseudomonas aeruginosa [11] = experiment: Antibacterial activity against Pseudomonas aeruginosa 1167 in MHB medium assessed as bacterial growth inhibition by CLSI based broth microdilution method; type: functional
Pseudomonas aeruginosa [12] = experiment: Antibiofilm activity against Pseudomonas aeruginosa PAO1 in ABTGC medium assessed as biofilm biomass at 1/2 times MIC incubated for 24 hrs by crystal violet staining based assay relative to control; type: functional
Pseudomonas aeruginosa [13] = experiment: Antibiofilm activity against Pseudomonas aeruginosa PAO1 in ABTGC medium assessed as biofilm biomass at MIC incubated for 24 hrs by crystal violet staining based assay relative to control; type: functional
Pseudomonas aeruginosa [14] = experiment: Antibiofilm activity against Pseudomonas aeruginosa PAO1 assessed as decrease in pyocyanin level at 15 uM by absorbance based assay; type: functional, organism-based
Pseudomonas aeruginosa [15] = experiment: Antibiofilm activity against Pseudomonas aeruginosa PAO1 in ABTGC medium assessed as biofilm biomass at 1/4 times MIC incubated for 24 hrs by crystal violet staining based assay relative to control; type: functional
Pseudomonas aeruginosa [16] = experiment: Antibacterial activity against Pseudomonas aeruginosa assessed as inhibition of virulence release at 4 ug/ml; type: functional, organism-based; details: dose 4.0 µg/ml

Row | SMILES | MIC (Pseudomonas aeruginosa [1]) [µM] | MIC (Pseudomonas aeruginosa [2]) [µM] | MIC (Pseudomonas aeruginosa [3]) [µM] | MIC (Pseudomonas aeruginosa [4]) [µM] | MIC (Staphylococcus aureus [5]) [µM] | MIC (Pseudomonas aeruginosa [6]) [µM] | MIC (Pseudomonas aeruginosa [7]) [µM] | MIC (Klebsiella pneumoniae) [µM] | inhibition (Pseudomonas aeruginosa [8]) | MIC (Staphylococcus aureus [9]) [µM] | MIC (Escherichia coli) [µM] | Activity (Pseudomonas aeruginosa [10]) | MIC (Pseudomonas aeruginosa [11]) [µM] | Activity (Pseudomonas aeruginosa [12]) [%] | Activity (Pseudomonas aeruginosa [13]) [%] | Activity (Pseudomonas aeruginosa [14]) | Activity (Pseudomonas aeruginosa [15]) [%] | inhibition (Pseudomonas aeruginosa [16])
1 | O=C(CCC(=O)N1CCN(c2cc3c(cc2F)c(=O)c(C(=O)O)cn3C2CC2)CC1)NCc1ccccc1 | > 200 | > 200 | > 200 | > 200 | > 200 | > 200 | > 200 | > 200 | inactive | 30.7 (≈ 16 µg/mL) | 15.4 (≈ 8 µg/mL) | inactive | > 200 | 97.3 | 218.8 | inactive | 102.4 | –
2 | Cn1cc(O)c(=O)cc1CNC(=O)CCCCC(=O)N1CCN(c2cc3c(cc2F)c(=O)c(C(=O)O)cn3C2CC2)CC1 | 6.72 (≈ 4 µg/mL) | 3.36 (≈ 2 µg/mL) | 3.36 (≈ 2 µg/mL) | 6.72 (≈ 4 µg/mL) | > 200 | 1.68 (≈ 1 µg/mL) | 0.84 (≈ 0.5 µg/mL) | 6.72 (≈ 4 µg/mL) | – | 13.4 (≈ 8 µg/mL) | 0.1 (≈ 0.0596 µg/mL) | – | 1.68 (≈ 1 µg/mL) | 110.3 | 86.4 | – | 24.9 | –
3 | Cc1cc(=O)c(O)c(CNC(=O)CCCCCCC(=O)N2CCN(c3cc4c(cc3F)c(=O)c(C(=O)O)cn4C3CC3)CC2)n1C | 128 (≈ 81.6 µg/mL) | > 200 | > 200 | > 200 | > 200 | > 200 | > 200 | > 200 | – | 50.2 (≈ 32 µg/mL) | 6.27 (≈ 4 µg/mL) | – | > 200 | 114.9 | 99.9 | – | 141.1 | –
4 | Cn1cc(O)c(=O)cc1CNC(=O)CCCC(=O)N1CCN(c2cc3c(cc2F)c(=O)c(C(=O)O)cn3C2CC2)CC1 | 13.8 (≈ 8 µg/mL) | 3.44 (≈ 2 µg/mL) | 3.44 (≈ 2 µg/mL) | 6.88 (≈ 4 µg/mL) | > 200 | 3.44 (≈ 2 µg/mL) | 0.86 (≈ 0.5 µg/mL) | 6.72 (≈ 3.91 µg/mL) | – | 13.8 (≈ 8 µg/mL) | 0.11 (≈ 0.064 µg/mL) | – | 1.72 (≈ 1 µg/mL) | 189 | 75.3 | – | 23.4 | –
5 | Cc1cc(=O)c(O)c(CNC(=O)CCC(CCC(=O)NCc2c(O)c(=O)cc(C)n2C)(CCC(=O)NCc2c(O)c(=O)cc(C)n2C)NC(=O)CCCCC(=O)N2CCN(c3cc4c(cc3F)c(=O)c(C(=O)O)cn4C3CC3)CC2)n1C | 56.2 (≈ 64 µg/mL) | 14 (≈ 16 µg/mL) | 7.02 (≈ 8 µg/mL) | 28.1 (≈ 32 µg/mL) | > 200 | 14 (≈ 16 µg/mL) | 3.51 (≈ 4 µg/mL) | 14 (≈ 16 µg/mL) | – | 14 (≈ 16 µg/mL) | 0.22 (≈ 0.251 µg/mL) | – | 7.02 (≈ 8 µg/mL) | 9.6 | 15.1 | – | 158.1 | –
6 | Cc1cc(=O)c(O)cn1CCCNC(=O)CCC(=O)N1CCN(c2cc3c(cc2F)c(=O)c(C(=O)O)cn3C2CC2)CC1 | 53.7 (≈ 32 µg/mL) | 3.36 (≈ 2 µg/mL) | 6.72 (≈ 4 µg/mL) | 6.36 (≈ 3.79 µg/mL) | > 200 | 6.72 (≈ 4 µg/mL) | 3.36 (≈ 2 µg/mL) | 13.4 (≈ 8 µg/mL) | – | 6.72 (≈ 4 µg/mL) | 0.42 (≈ 0.25 µg/mL) | – | 3.36 (≈ 2 µg/mL) | 78.2 | 92.1 | – | 116.3 | –
7 | Cc1cc(=O)c(O)c(CNC(=O)CCC(N)(CCC(=O)NCc2c(O)c(=O)cc(C)n2C)CCC(=O)NCc2c(O)c(=O)cc(C)n2C)n1C | > 200 | > 200 | > 200 | > 200 | > 200 | > 200 | > 200 | > 200 | – | > 200 | > 200 | – | > 200 | 346.5 | 315.1 | – | 99.8 | inactive
8 | O=C(CCC(=O)N1CCN(c2cc3c(cc2F)c(=O)c(C(=O)O)cn3C2CC2)CC1)NCc1cc(=O)c(O)cn1O | 14.1 (≈ 8 µg/mL) | 7.02 (≈ 4 µg/mL) | 7.02 (≈ 4 µg/mL) | 7.02 (≈ 4 µg/mL) | > 200 | 7.02 (≈ 4 µg/mL) | 1.76 (≈ 1 µg/mL) | 14.1 (≈ 8 µg/mL) | – | 28.1 (≈ 16 µg/mL) | 0.22 (≈ 0.125 µg/mL) | – | 3.51 (≈ 2 µg/mL) | 54.2 | 137 | – | 48.9 | –
9 | O=C(CCC(=O)N1CCN(c2cc3c(cc2F)c(=O)c(C(=O)O)cn3C2CC2)CC1)NCc1cc(=O)c(O)c[nH]1 | 14.4 (≈ 8 µg/mL) | 7.23 (≈ 4 µg/mL) | 7.23 (≈ 4 µg/mL) | 7.23 (≈ 4 µg/mL) | > 200 | 3.61 (≈ 2 µg/mL) | 1.81 (≈ 1 µg/mL) | 14.4 (≈ 8 µg/mL) | – | 3.61 (≈ 2 µg/mL) | 0.23 (≈ 0.127 µg/mL) | – | 3.61 (≈ 2 µg/mL) | 98.8 | 169.8 | – | 19.9 | –
10 | Cc1cc(=O)c(O)c(CNC(=O)CCCC(=O)N2CCN(c3cc4c(cc3F)c(=O)c(C(=O)O)cn4C3CC3)CC2)n1C | 128 (≈ 76.2 µg/mL) | 13.4 (≈ 8 µg/mL) | 0.86 (≈ 0.512 µg/mL) | 13.4 (≈ 8 µg/mL) | > 200 | 6.72 (≈ 4 µg/mL) | 6.72 (≈ 4 µg/mL) | 26.9 (≈ 16 µg/mL) | – | 53.7 (≈ 32 µg/mL) | 0.21 (≈ 0.125 µg/mL) | – | 6.72 (≈ 4 µg/mL) | 116.8 | 39.5 | – | 84.1 | –
11 | Cc1cc(=O)c(O)cn1CCCn1cc(CCC(=O)N2CCN(c3cc4c(cc3F)c(=O)c(C(=O)O)cn4C3CC3)CC2)nn1 | > 200 | 103 (≈ 64 µg/mL) | 103 (≈ 64 µg/mL) | 103 (≈ 64 µg/mL) | > 200 | 103 (≈ 64 µg/mL) | 103 (≈ 64 µg/mL) | > 200 | – | > 200 | 51.6 (≈ 32 µg/mL) | – | 103 (≈ 64 µg/mL) | 127.7 | 71.7 | – | 97.6 | –
12 | Cc1cc(=O)c(O)c(CNC(=O)CCCCC(=O)N2CCN(c3cc4c(cc3F)c(=O)c(C(=O)O)cn4C3CC3)CC2)n1C | 13.1 (≈ 8 µg/mL) | 3.28 (≈ 2 µg/mL) | 3.28 (≈ 2 µg/mL) | 6.56 (≈ 4 µg/mL) | > 200 | 3.28 (≈ 2 µg/mL) | 1.64 (≈ 1 µg/mL) | 6.56 (≈ 4 µg/mL) | – | 13.1 (≈ 8 µg/mL) | 0.05 (≈ 0.0305 µg/mL) | – | 3.28 (≈ 2 µg/mL) | 86.3 | 23.3 | – | 27 | –
13 | Cn1cc(O)c(=O)cc1CNC(=O)CCC(=O)N1CCN(c2cc3c(cc2F)c(=O)c(C(=O)O)cn3C2CC2)CC1 | 7.05 (≈ 4 µg/mL) | 1.76 (≈ 0.999 µg/mL) | 1.76 (≈ 0.999 µg/mL) | 3.52 (≈ 2 µg/mL) | > 200 | 1.76 (≈ 0.999 µg/mL) | 0.88 (≈ 0.499 µg/mL) | 3.52 (≈ 2 µg/mL) | – | 7.05 (≈ 4 µg/mL) | 0.06 (≈ 0.0341 µg/mL) | – | 0.88 (≈ 0.499 µg/mL) | 110.3 | 55.3 | – | 29.2 | –
14 | Cn1cc(O)c(=O)cc1Cn1cc(CCC(=O)N2CCN(c3cc4c(cc3F)c(=O)c(C(=O)O)cn4C3CC3)CC2)nn1 | > 200 | 108 (≈ 64 µg/mL) | 108 (≈ 64 µg/mL) | 108 (≈ 64 µg/mL) | > 200 | 108 (≈ 64 µg/mL) | 27.1 (≈ 16 µg/mL) | > 200 | – | > 200 | 3.38 (≈ 2 µg/mL) | – | 54.1 (≈ 32 µg/mL) | 133.7 | 52.1 | – | 99.4 | –
15 | Cc1cc(=O)c(O)c(CNC(=O)CCC(CCC(=O)NCc2c(O)c(=O)cc(C)n2C)(CCC(=O)NCc2c(O)c(=O)cc(C)n2C)NC(=O)CCCC(=O)N2CCN(c3cc4c(cc3F)c(=O)c(C(=O)O)cn4C3CC3)CC2)n1C | 14.2 (≈ 16 µg/mL) | 3.55 (≈ 3.99 µg/mL) | 7.11 (≈ 8 µg/mL) | 7.11 (≈ 8 µg/mL) | > 200 | 3.55 (≈ 3.99 µg/mL) | 1.78 (≈ 2 µg/mL) | 14.2 (≈ 16 µg/mL) | – | 14.2 (≈ 16 µg/mL) | 0.22 (≈ 0.248 µg/mL) | – | 1.78 (≈ 2 µg/mL) | 79.3 | 12.7 | – | 26.1 | –
16 | Cc1cc(=O)c(O)c(CNC(=O)CCC(CCC(=O)NCc2c(O)c(=O)cc(C)n2C)(CCC(=O)NCc2c(O)c(=O)cc(C)n2C)NC(=O)CCC(=O)N2CCN(c3cc4c(cc3F)c(=O)c(C(=O)O)cn4C3CC3)CC2)n1C | 115 (≈ 128 µg/mL) | 28.8 (≈ 32 µg/mL) | 7.2 (≈ 8 µg/mL) | 57.6 (≈ 64 µg/mL) | > 200 | 28.8 (≈ 32 µg/mL) | 14.4 (≈ 16 µg/mL) | 14.4 (≈ 16 µg/mL) | – | 14.4 (≈ 16 µg/mL) | 0.22 (≈ 0.244 µg/mL) | – | 14.4 (≈ 16 µg/mL) | 20.9 | 20.7 | – | 211.1 | –
